{
  "source": "patent US20240058308A1",
  "about": "“TREATMENT AND PREVENTION OF DRY MACULAR DEGENERATION” (The Regents of the University of Michigan, priority 2021, published 2024)",
  "test_system": "primary RPE cultures",
  "assay": "APOE secretion by western blotting of supernates",
  "assay_type": "cell-based, human",
  "settings": "24 hours",
  "experimental": "After 24 hours of exposure to drugs, supernates were collected and subjected to western blotting for APOE detection and a fluorometric assay for β-HB detection [Ref 51; incorporated by reference in its entirety]. Twenty microliters of apical and basolateral supernates for APOE were mixed with SDS sample buffer and blotted with antibody at a dilution of 1:2000. APOE and β-HB values were normalized to the average value of the vehicle and experimental group within each experimental repeat.\nThe RPE handles an enormous lipid burden on a daily basis, including OS ingestion from its apical side and lipoprotein particle absorption from its basolateral side. Rather than storing excess lipid, the RPE may choose to degrade or secrete surplus lipids (FIG. 4a). A marker of lipid degradation is the production of KBs, which are secreted by the RPE apically and serve as an energy source for photoreceptors [Refs. 7,8; incorporated by reference in their entireties]. A marker of lipid secretion is the production of the lipoprotein APOE, which is a major component of drusen [Ref. 50; incorporated by reference in its entirety]. It was contemplated that autophagy inducers promote ketogenesis through degradation of ingested lipids, reducing the stimulus for secretion of drusen-promoting APOE.",
  "data": [
    {"smiles": "COC(=O)Nc1nc2cc(C(=O)c3ccc(F)cc3)ccc2[nH]1", "note": "[FLBZ, Flubendazole]", "values": [
      {"measurement": "APOE secretion, apical and basolateral", "result": "reduced the apical and basolateral secretion of APOE"}
    ]}
  ]
}
